These results are taken from patent EP3442966B1, “NOVEL N-[(PYRIMIDINYLAMINO)PROPANYL]- AND N-[(PYRIDINYLAMINO)PROPANYL]ARYLCARBOXAMIDES” (Boehringer Ingelheim International GmbH, priority 2016, dated 2017).

The structures appear in SMILES notation. Like-named read-outs stand apart in the source and are kept apart here.

Assay [1] concerns the target T1, OX2R (Homo sapiens, UniProt O43614).
T1 sequence (O43614 1-444): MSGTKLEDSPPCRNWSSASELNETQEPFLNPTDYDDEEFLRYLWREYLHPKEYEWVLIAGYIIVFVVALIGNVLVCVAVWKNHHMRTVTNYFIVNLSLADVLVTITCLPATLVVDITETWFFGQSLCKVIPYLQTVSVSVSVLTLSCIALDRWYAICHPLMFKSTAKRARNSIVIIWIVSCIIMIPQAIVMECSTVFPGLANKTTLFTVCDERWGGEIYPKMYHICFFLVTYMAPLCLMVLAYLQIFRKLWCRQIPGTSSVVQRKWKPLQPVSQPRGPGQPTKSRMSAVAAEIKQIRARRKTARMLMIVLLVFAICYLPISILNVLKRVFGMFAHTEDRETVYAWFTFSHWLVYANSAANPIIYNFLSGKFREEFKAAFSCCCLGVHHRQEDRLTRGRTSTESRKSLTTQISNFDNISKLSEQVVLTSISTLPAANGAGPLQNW
The conditions noted are these: WO2016/034882 Table 2 (Method A), cited from earlier work; for IC50: conversion of pIC50.

For assay [2], the target named is T1, OX2R. The conditions noted are these: WO2016/034882 Table 3 (Method B), cited from earlier work; for IC50: conversion of pIC50.
A further assay addresses T2, human Orexin 1 receptor (Homo sapiens, UniProt O43613).
T2 construct: stably expressing the full-length human Orexin 1 receptor; expressed in transfected cells; host or cells: CHO-K1 (CHO-K1/hOx1), co-expressing the aequorin photoprotein
T2 sequence (O43613 1-425): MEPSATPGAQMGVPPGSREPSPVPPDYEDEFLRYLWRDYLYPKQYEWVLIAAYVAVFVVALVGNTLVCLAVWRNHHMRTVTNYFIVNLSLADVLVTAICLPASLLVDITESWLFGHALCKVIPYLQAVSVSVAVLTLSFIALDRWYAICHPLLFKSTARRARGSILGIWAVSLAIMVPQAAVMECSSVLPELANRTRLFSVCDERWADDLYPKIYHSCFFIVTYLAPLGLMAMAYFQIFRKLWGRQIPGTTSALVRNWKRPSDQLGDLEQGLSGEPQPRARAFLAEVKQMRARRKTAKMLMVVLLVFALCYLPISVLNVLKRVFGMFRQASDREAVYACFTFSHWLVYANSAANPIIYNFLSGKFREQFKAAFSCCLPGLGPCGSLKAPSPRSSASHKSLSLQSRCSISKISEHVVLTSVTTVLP
As to the kind of experiment: Assay A: in vitro testing of OX1R potency, OX1R IP1 (HTRF) in CHO-K1/hOx1 cells. The format is cell-based. From the text: Activation of the orexin receptors expressed in cell lines results in an increase in intracellular IP3 concentration. IP1, a downstream metabolite of IP3, accumulates in cells following receptor activation and is stable in the presence of LiCI. Using Homogeneous Time-Resolved Fluorescence technology with Lumi4-Tb cryptate (commercially available from Cisbio Bioassay) and a suitable fluorescence plate reader. […] This technique is used to characterize pharmacological modification of the orexin receptors.
IP1 measurements are performed in CHO-K1 cells stably expressing the full-length human Orexin 1 receptor and the aequorin photoprotein. Cells are cultivated in Ham's nutrient mixture F12 medium with 10% fetal calf serum, in a 37°C, 95% humidity and 5% CO2 incubator. The CHO-K1/hOx1 cell mass is expanded to larger cell numbers. The cells are obtained as frozen cells in cryo-vials and stored until use at -150°C.
In preparation for the assay, 24 hours before the assay, the cells are thawed at 37°C and immediately diluted with cell culture medium. After centrifugation, the cell pellet is re-suspended in medium and then distributed into the assay plates with a density of 10000 cells/25 µL per well. The plates are incubated for one hour at room temperature to reduce edge effects before they are incubated for 24 hours at 37°C/5% CO2. Compounds are prepared by an 8-point serial dilution in DMSO and a final dilution step into assay buffer (HBSS with 20 mM HEPES, 0.1% BSA and 50 mM LiCl, pH 7.4) to ensure a final DMSO concentration of 1% in the assay.
On the day of the assay, cells in the plate are washed twice with 60 µL assay buffer (20 µL buffer remained in the wells after washing), followed by adding 5 µL per well of compounds diluted in assay buffer. After 15 minutes of incubation at room temperature 5 µL per well of Orexin A peptide (final concentration: 0.5 nM, and/or 50 nM for selected compounds) dissolved in assay buffer is added to the assay plate. The assay plate is incubated for 60 minutes at 37°C. Then 5 µL per well of Anti-IP1-Cryptate Tb solution and 5 µL per well of IP1-d2 dilution are added and the plate is incubated for a further 60 minutes light protected at room temperature.
8-point four parametric non-linear curve fitting and determination of IC50 values and Hill slopes is performed using a regular analysis software e.g. AssayExplorer (Accelrys).
(In TR-FRET formats the signal depends on donor and acceptor labels being close together.)

For a further assay, the target named is T3, human orexin 2 receptor (Homo sapiens, UniProt O43614).
T3 construct: stably expressing the full-length human orexin 2 receptor; expressed in transfected cells; host or cells: CHO-K1 (CHO-K1/hOx2), co-expressing the aequorin photoprotein
T3 sequence (O43614 1-444): T1 sequence (O43614 1-444)
As to the kind of experiment: Assay B: in vitro testing of OX2R potency, OX2R IP1 (HTRF) in CHO-K1/hOx2 cells. The conditions noted are these: 0.5 nM Orexin A concentration. The format is cell-based.

Assay [3] concerns the target T4, OX1R (Homo sapiens, UniProt O43613).
T4 sequence (O43613 1-425): T2 sequence (O43613 1-425)
Nature of the assay: OX1R assay of WO2016/034882, Table 3 (Method B). The format is cell-based. The conditions noted are these: ratio from WO2016/034882 Table 3 (Method B) values.

Assay [4] addresses T4, OX1R. The conditions noted are these: data as described in WO03/051872 (page 16-18); given as a range; cited from earlier work.
Assay [5] has as its target T1, OX2R. The conditions noted are these: data as described in WO03/051872 (page 16-18); given as a range; cited from earlier work.
The mark [6] stands for this setting: selectivity ratio, OX1R Kb at 50 nM Orexin A, OX2R Kb at 0.5 nM Orexin A.

Turning to `CC[C@@H](CNc1ccc(Cl)cn1)N(C)C(=O)c1cc(C)ccc1-n1nccn1` [Ex 1 in WO2016/ 034882], on OX2R [1], the IC50 is 1260 nM.
Take `CC[C@@H](CNc1ncc(C(F)(F)F)cn1)N(C)C(=O)c1cc(Cl)ccc1-n1nccn1` [Ex 39 in WO2016/ 034882]: on OX2R [1], the “OX2R pIC50” value is listed as under 5.0 and the IC50 is under 10000 nM. In addition, the IC50 on OX2R [2] is 1580 nM.
On to `CC[C@@H](CNc1ccc(C(F)(F)F)cn1)N(CC)C(=O)c1nc(C)ccc1-n1nccn1` [Ex 71 in WO2016/ 034882], for which, at human Orexin 1 receptor, the “OX2R Kb / OX1R Kb” value is 905. Moreover, at OX2R [2], the “OX2R pIC50” value is on record as 6.6.
As to `CC[C@@H](CNc1ncc(C(F)(F)F)cn1)N(CC)C(=O)c1nc(C)ccc1-n1nccn1` [Ex 73 in WO2016/ 034882], at OX2R [2], the “OX2R pIC50” value was under 6.0 and the IC50 was over 1000 nM.
At human orexin 2 receptor, `CC[C@@H](CNc1ncc(C(F)(F)F)cn1)N(C)C(=O)c1nc(C)ccc1-c1ncccn1` [Ex 84 in WO2016/ 034882] had a Kb of 229 nM.
The compound `CC[C@@H](CNc1ncc(C(F)(F)F)cn1)N(C)C(=O)c1c(F)cccc1-n1nccn1` [Ex 91 in WO2016/ 034882] displayed a Kb on human orexin 2 receptor of 313 nM. Moreover, at OX1R [3], the “OX2R IC50 / OX1R IC50” value is reported as “Table 3: 318”. Also, the “OX2R pIC50” value on OX2R [2] is under 5.1.
For the compound `CCN(C(=O)c1c(-n2nccn2)ccc(C)c1F)[C@@H](C)CNc1ncc(C(F)(F)F)cn1` [Example 1], the “OX2R Kb / OX1R Kb” value at human Orexin 1 receptor (setting [6]) came out at 529.
For the compound `CCN(C(=O)c1cc(C)ccc1-n1nccn1)[C@@H](C)CNc1ncc(C(F)(F)F)cn1` [Example 2], the “OX2R Kb / OX1R Kb” value at human Orexin 1 receptor (setting [6]) turned out to be 379.
On to `CCN(C(=O)c1cc(OC)ccc1-n1nccn1)[C@@H](C)CNc1ncc(C(F)(F)F)cn1` [Example 4], for which the “OX2R Kb / OX1R Kb” value at human Orexin 1 receptor (setting [6]) came out at 736.
For `CCN(C(=O)c1ccc(C)cc1-n1nccn1)[C@@H](C)CNc1ncc(C(F)(F)F)cn1` [Example 5], at human Orexin 1 receptor (setting [6]), the “OX2R Kb / OX1R Kb” value is listed as 1783.
As to `Cc1nc(C(=O)N(C)CCNc2ncc(Br)cn2)c(-c2ccc(F)cc2)s1` [Example 6 in WO03/051872], on OX1R [4], the “OX1R pKb” value is 6.4 to 7.4. For the same compound, the “OX2R pKb” value at OX2R [5] is given as under 6.6 to 7.4.
With `CCN(C(=O)c1nc(C)sc1-c1ccccc1)[C@@H](C)CNc1ncc(C(F)(F)F)cn1` [Example 6], at human Orexin 1 receptor (setting [6]), the “OX2R Kb / OX1R Kb” value is recorded as 527.
On the same count and under the same terms, the same measure for `CCN(C(=O)c1ccc(Cl)cc1-n1nccn1)[C@@H](C)CNc1ncc(C(F)(F)F)cn1` [Example 7]: 922; for `CCN(C(=O)c1nc(C)sc1-c1ccc(F)cc1)[C@@H](C)CNc1ncc(C(F)(F)F)cn1` [Example 8]: 367.
`CCN(C(=O)c1cc(C)ccc1-n1nccn1)[C@@H](C)CNc1ccc(Cl)cn1` [Example 10]: the “OX2R Kb / OX1R Kb” value at human Orexin 1 receptor (setting [6]) amounted to 403.
With `CCN(C(=O)c1cccc(F)c1-c1ncccn1)[C@@H](C)CNc1ccc(C(F)(F)F)cn1` [Example 11], the “OX2R Kb / OX1R Kb” value on human Orexin 1 receptor (setting [6]) worked out at 212.
Still for that read-out and setting: the figure for `CCN(C(=O)c1cccc(F)c1-c1ncccn1)[C@@H](C)CNc1ccc(F)c(C(F)(F)F)n1` [Example 12] is 216; for `CCN(C(=O)c1cc(F)ccc1-c1ncccn1)[C@@H](C)CNc1ncc(C(F)(F)F)cc1F` [Example 13] it is 438; for `CCN(C(=O)c1ccc(C)c(C)c1-n1nccn1)[C@@H](C)CNc1ccc(Cl)cn1` [Example 14] it is 1018.
The same measure, in the same setting: the same measure for `CCN(C(=O)c1cccc(F)c1-n1nccn1)[C@@H](C)CNc1ccc(C(F)(F)F)cn1` [Example 15]: 880; for `CCN(C(=O)c1cccc(F)c1-n1nccn1)[C@@H](C)CNc1ncc(C(F)(F)F)cc1F` [Example 16]: 560.
For `CCN(C(=O)c1cccc(F)c1-n1nccn1)[C@@H](C)CNc1ccc(Cl)cn1` [Example 17], the “OX2R Kb / OX1R Kb” value on human Orexin 1 receptor (setting [6]) turned out to be 268.
Take `CCN(C(=O)c1cccc(F)c1-n1nccn1)[C@@H](C)CNc1ccc(F)c(C(F)(F)F)n1` [Example 18]: the “OX2R Kb / OX1R Kb” value at human Orexin 1 receptor (setting [6]) is reported as 209.
Turning to `CCN(C(=O)c1nccc(C(F)(F)F)c1-c1ccn(C)n1)[C@@H](C)COc1ccc(C(F)(F)F)cn1` [Example 19], the “OX2R Kb / OX1R Kb” value on human Orexin 1 receptor (setting [6]) turned out to be 230.
As to `CCN(C(=O)c1ccc(OC)cc1-n1nccn1)[C@@H](C)CNc1ncc(C(F)(F)F)cn1` [Example 20], the “OX2R Kb / OX1R Kb” value at human Orexin 1 receptor (setting [6]) is on record as 1264.

What is called IC50 is the midpoint of a concentration-inhibition curve.
